Reference: the NIST ThermoML archive (doi:10.1016/j.jct.2005.12.007)
± gives the expanded uncertainty stated by the source.

Conditions: 298.15 K, 101.33 kPa, Liquid; for viscosity: Capillary tube (Ostwald / Ubbelohde) method; for mass density: Pycnometric method; for speed of sound: Sing-around technique in a fixed-path interferometer

viscosity [mPa·s] | mass density [kg/m3] | speed of sound [m/s] | Compound
0.486 ± 0.007 | 733.3 ± 1 | 1249.7 ± 2.2 | CCCCN [1-butanamine]
0.821 ± 0.008 | 757.53 ± 0.74 | 1243.4 ± 1.4 | CCCCNCCCC [dibutylamine]
1.258 ± 0.012 | 773.56 ± 0.76 | 1245.3 ± 1.4 | CCCCN(CCCC)CCCC [tributylamine]
